Assay results as given in ChEMBL document CHEMBL5360563, “Discovery of a potent and selective allosteric inhibitor targeting the SHP2 tunnel site for RTK-driven cancer treatment” (Eur J Med Chem, 2023).

Key:
[1] = biological target: T1, Tyrosine-protein phosphatase non-receptor type 11 (Homo sapiens, UniProt Q06124); experiment: Inhibition of pIRS-1 peptide activated human wild type SHP2 FL (Met1 to Leu525 residues) using DiFMUP as substrate preincubated for 30 mins followed by substrate addition and measured after 30 mins by microplate reader method
T1 sequence (Q06124 whole entry): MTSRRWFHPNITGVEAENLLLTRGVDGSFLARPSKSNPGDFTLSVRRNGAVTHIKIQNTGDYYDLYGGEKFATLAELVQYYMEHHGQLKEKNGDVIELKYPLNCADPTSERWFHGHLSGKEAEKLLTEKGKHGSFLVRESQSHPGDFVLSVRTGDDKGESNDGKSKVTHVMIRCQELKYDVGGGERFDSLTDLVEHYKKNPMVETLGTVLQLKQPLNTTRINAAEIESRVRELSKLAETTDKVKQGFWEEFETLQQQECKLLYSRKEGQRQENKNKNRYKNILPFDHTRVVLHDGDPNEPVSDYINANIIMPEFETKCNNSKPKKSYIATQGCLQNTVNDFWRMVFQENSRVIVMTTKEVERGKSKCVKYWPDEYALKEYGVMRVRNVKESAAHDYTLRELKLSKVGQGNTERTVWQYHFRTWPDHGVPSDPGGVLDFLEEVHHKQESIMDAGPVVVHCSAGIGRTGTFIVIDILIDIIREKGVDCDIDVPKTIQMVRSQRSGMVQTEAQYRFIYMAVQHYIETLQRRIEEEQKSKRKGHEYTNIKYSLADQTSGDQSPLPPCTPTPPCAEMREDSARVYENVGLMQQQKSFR

[2] = biological target: T1, Tyrosine-protein phosphatase non-receptor type 11; experiment: Inhibition of human SHP2 in human NCI-H1975 cells assessed as reduction in ERK phosphorylation by Western blot analysis; format: cell-based
[3] = biological target: T1, Tyrosine-protein phosphatase non-receptor type 11; experiment: Inhibition of human SHP2 in human NCI-H1975/OSIR cells assessed as reduction in ERK phosphorylation by Western blot analysis; format: cell-based
[4] = Half life in Sprague-Dawley rat at 5 mg/kg, iv and measured upto 24 hrs by LC-MS/MS analysis; format: ADME, organism-based; details: in vivo
[5] = Tmax in Sprague-Dawley rat at 5 mg/kg, iv and measured upto 24 hrs by LC-MS/MS analysis; format: ADME, organism-based; details: in vivo
[6] = Cmax in Sprague-Dawley rat at 5 mg/kg, iv and measured upto 24 hrs by LC-MS/MS analysis; format: ADME, organism-based; parameters: dose 5 mg/kg, time < 24 hrs, route iv; details: in vivo
[7] = AUC (0 to infinity) in Sprague-Dawley rat at 5 mg/kg, iv and measured upto 24 hrs by LC-MS/MS analysis; format: ADME, organism-based; parameters: dose 5 mg/kg, time < 24 hrs, route iv; details: in vivo
[8] = Volume of distribution at steady state in Sprague-Dawley rat at 5 mg/kg, iv and measured upto 24 hrs by LC-MS/MS analysis; format: ADME, organism-based; details: in vivo, read-out: Vdss
[9] = Clearance in Sprague-Dawley rat at 5 mg/kg, iv and measured upto 24 hrs by LC-MS/MS analysis; format: ADME, organism-based; details: in vivo
[10] = Half life in Sprague-Dawley rat at 5 mg/kg, po and measured upto 24 hrs by LC-MS/MS analysis; format: ADME, organism-based; details: in vivo
[11] = Tmax in Sprague-Dawley rat at 5 mg/kg, po and measured upto 24 hrs by LC-MS/MS analysis; format: ADME, organism-based; details: in vivo
[12] = Cmax in Sprague-Dawley rat at 5 mg/kg, po and measured upto 24 hrs by LC-MS/MS analysis; format: ADME, organism-based; parameters: dose 5 mg/kg, time < 24 hrs, route po; details: in vivo
[13] = AUC (0 to infinity) in Sprague-Dawley rat at 5 mg/kg, po and measured upto 24 hrs by LC-MS/MS analysis; format: ADME, organism-based; parameters: dose 5 mg/kg, time < 24 hrs, route po; details: in vivo
[14] = Oral bioavailability in Sprague-Dawley rat at 5 mg/kg and measured upto 24 hrs by LC-MS/MS analysis; format: ADME, organism-based; details: in vivo
[15] = biological target: Dual specificity tyrosine-phosphorylation-regulated kinase 1B (Homo sapiens) (UniProt Q9Y463); details: dose 1000.0 nM
Sequence of Dual specificity tyrosine-phosphorylation-regulated kinase 1B (Homo sapiens) (Q9Y463 whole entry, looked up): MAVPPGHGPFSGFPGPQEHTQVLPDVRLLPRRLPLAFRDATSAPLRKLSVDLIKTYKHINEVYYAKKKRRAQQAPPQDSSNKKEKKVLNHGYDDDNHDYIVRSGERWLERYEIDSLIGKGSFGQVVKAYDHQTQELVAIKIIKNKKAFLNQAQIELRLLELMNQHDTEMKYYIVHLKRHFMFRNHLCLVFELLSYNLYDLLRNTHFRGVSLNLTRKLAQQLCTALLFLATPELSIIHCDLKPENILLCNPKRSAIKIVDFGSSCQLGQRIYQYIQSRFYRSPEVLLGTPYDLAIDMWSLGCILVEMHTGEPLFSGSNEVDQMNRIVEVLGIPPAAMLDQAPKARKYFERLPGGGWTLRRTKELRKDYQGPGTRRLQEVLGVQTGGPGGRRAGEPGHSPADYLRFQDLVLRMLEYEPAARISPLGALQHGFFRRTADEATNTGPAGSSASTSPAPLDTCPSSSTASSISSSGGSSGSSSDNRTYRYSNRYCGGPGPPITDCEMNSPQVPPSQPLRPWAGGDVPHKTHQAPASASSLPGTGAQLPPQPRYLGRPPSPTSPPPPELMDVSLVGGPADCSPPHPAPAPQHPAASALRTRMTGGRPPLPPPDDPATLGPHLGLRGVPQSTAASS
Description: Inhibition of DYRK1B (unknown origin) at 1000 nM by KINOMEscan assay relative to control

[16] = biological target: Serine/threonine-protein kinase 32C (Homo sapiens) (UniProt Q86UX6); details: dose 1000.0 nM
Sequence of Serine/threonine-protein kinase 32C (Homo sapiens) (Q86UX6 whole entry): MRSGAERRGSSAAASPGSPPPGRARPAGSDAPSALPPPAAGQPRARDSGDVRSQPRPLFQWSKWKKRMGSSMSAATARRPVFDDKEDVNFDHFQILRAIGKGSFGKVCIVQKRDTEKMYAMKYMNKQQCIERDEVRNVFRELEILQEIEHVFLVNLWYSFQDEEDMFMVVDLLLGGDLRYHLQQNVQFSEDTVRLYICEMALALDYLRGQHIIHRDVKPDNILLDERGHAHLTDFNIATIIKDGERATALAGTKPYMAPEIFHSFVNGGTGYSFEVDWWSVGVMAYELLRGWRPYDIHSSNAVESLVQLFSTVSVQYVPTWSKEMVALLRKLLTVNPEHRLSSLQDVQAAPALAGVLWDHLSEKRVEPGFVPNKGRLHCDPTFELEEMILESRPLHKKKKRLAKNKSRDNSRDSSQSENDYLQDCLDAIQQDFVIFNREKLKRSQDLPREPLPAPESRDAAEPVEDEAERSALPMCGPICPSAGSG
Description: Inhibition of YANK3 (unknown origin) at 1000 nM by KINOMEscan assay relative to control

[17] = biological target: T2, TGF-beta receptor type-1 (Homo sapiens) (UniProt P36897); details: dose 1000.0 nM
T2 sequence (whole entry): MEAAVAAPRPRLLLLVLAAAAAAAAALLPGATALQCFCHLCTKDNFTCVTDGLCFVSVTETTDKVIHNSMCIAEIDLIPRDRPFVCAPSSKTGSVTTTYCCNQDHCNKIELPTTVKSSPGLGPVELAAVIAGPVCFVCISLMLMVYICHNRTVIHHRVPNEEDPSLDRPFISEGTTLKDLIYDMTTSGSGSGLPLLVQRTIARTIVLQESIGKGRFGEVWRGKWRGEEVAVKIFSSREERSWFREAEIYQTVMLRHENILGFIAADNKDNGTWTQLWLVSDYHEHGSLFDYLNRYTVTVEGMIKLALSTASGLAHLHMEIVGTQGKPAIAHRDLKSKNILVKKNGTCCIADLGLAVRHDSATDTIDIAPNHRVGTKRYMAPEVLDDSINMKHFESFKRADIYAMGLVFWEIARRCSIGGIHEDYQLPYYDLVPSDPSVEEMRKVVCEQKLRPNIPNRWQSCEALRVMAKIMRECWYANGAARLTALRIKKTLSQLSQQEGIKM
Description: Inhibition of TGFBR1 (unknown origin) at 1000 nM by KINOMEscan assay relative to control

[18] = biological target: Insulin receptor (Homo sapiens) (UniProt P06213); details: dose 1000.0 nM
Sequence of Insulin receptor (Homo sapiens) (P06213 28-758 limits assumed): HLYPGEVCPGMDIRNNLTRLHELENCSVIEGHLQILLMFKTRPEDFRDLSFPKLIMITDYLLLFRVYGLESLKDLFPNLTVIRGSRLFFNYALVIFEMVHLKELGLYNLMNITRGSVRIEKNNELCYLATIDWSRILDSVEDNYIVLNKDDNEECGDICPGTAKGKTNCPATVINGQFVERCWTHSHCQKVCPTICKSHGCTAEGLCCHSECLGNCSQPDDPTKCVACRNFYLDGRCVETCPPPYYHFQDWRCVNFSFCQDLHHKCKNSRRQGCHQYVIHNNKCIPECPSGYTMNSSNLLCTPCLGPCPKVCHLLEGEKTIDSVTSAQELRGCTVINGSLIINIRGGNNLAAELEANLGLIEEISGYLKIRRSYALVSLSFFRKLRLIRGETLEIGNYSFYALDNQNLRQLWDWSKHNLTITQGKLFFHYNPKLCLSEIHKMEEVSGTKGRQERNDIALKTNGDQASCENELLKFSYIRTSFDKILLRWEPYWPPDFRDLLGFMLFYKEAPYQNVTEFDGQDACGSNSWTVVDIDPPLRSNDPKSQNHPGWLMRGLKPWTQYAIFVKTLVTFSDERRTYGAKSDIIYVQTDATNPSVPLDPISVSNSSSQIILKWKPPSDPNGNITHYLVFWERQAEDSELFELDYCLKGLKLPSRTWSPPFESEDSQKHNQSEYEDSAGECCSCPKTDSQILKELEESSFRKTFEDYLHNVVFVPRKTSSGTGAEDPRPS
Sequence of Insulin receptor (Homo sapiens) (P06213 763-1382 limits assumed): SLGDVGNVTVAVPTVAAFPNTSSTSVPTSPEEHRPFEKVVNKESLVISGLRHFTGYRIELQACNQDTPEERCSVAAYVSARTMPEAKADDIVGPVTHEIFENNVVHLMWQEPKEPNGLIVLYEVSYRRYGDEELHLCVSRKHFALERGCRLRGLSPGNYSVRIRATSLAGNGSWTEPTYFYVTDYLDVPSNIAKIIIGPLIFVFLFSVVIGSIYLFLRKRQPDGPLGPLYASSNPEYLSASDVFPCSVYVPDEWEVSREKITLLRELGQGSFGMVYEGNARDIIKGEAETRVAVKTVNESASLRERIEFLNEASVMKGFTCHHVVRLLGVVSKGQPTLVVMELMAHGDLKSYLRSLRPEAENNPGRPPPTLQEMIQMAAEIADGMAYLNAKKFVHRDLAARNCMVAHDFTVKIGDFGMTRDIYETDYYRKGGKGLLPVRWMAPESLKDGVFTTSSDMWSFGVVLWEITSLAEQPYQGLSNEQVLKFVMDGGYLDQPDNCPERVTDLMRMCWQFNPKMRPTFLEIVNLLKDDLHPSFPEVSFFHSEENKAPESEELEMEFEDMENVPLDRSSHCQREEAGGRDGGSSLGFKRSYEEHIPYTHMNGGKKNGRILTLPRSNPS
Description: Inhibition of INSR (unknown origin) at 1000 nM by KINOMEscan assay relative to control

[19] = biological target: T3, Serine/threonine-protein kinase STK11 (Homo sapiens) (UniProt Q15831); details: dose 1000.0 nM
T3 sequence (whole entry): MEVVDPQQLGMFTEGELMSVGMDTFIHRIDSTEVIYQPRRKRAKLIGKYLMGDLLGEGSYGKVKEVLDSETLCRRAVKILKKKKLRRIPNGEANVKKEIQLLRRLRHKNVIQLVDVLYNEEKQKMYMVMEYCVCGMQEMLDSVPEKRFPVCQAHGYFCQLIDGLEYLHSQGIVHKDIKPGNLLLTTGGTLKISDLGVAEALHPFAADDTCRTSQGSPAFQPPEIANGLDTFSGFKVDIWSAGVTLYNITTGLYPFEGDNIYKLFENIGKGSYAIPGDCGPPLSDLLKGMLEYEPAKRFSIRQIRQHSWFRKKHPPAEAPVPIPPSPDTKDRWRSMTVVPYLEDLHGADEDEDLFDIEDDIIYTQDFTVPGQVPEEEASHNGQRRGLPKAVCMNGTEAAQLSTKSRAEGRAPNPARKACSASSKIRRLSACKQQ
Description: Inhibition of LKB1 (unknown origin) at 1000 nM by KINOMEscan assay relative to control

[20] = biological target: Phosphatidylinositol 4-phosphate 3-kinase C2 domain-containing subunit beta (Homo sapiens) (UniProt O00750); details: dose 1000.0 nM
Sequence of Phosphatidylinositol 4-phosphate 3-kinase C2 domain-containing subunit beta (Homo sapiens) (O00750 whole entry, the tested form may be a part): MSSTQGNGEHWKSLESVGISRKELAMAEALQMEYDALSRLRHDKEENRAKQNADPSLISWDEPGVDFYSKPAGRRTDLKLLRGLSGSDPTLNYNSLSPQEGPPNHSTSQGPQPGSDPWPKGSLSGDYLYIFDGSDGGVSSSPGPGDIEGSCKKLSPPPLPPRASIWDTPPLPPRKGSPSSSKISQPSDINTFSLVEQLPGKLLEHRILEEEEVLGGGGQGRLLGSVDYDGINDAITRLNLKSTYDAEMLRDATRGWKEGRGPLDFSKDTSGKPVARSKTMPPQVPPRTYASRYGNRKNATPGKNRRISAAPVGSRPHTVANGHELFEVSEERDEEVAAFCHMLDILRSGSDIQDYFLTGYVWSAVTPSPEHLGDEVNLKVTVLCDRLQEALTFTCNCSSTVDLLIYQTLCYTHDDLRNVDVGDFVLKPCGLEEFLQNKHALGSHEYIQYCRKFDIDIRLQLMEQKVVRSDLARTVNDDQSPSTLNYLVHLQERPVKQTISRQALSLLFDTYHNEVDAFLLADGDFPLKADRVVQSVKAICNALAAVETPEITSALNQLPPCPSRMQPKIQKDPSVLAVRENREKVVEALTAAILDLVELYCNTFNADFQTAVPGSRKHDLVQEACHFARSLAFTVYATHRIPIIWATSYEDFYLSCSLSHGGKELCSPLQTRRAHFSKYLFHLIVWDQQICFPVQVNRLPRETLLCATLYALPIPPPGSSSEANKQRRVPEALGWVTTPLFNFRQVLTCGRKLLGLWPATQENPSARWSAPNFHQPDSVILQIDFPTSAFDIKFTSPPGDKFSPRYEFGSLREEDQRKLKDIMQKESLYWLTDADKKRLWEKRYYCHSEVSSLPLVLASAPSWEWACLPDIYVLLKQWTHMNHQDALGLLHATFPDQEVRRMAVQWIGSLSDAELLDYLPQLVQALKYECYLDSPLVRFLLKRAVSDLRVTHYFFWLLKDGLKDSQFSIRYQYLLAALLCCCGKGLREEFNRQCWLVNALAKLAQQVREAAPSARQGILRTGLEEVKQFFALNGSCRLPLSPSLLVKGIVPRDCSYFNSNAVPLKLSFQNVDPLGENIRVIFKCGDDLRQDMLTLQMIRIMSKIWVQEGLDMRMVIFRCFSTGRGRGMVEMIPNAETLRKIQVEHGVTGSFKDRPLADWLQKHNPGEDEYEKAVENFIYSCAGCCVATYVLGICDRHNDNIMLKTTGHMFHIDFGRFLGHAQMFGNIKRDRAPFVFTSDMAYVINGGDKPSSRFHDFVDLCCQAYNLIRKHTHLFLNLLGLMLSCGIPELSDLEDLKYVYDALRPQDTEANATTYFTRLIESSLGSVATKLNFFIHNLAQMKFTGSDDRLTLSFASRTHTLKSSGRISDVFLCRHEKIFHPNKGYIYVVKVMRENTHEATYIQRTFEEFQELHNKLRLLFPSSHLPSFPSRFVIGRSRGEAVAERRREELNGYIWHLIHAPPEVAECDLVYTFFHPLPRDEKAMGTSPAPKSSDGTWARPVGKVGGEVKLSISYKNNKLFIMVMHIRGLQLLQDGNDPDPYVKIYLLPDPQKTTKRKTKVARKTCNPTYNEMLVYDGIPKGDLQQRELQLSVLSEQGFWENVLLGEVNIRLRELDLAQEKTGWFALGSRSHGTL
Description: Inhibition of PIK3C2B (unknown origin) at 1000 nM by KINOMEscan assay relative to control

Structure (SMILES) | IC50 [1] | also measured
CCN1CCN(c2ncc(C(=O)Nc3ccccc3)c(N)n2)CC1 | 10.2 µM | –
COc1ccccc1CN1CCCC(c2[nH]ccc2C(N)=O)C1 (stereo unspecified) | 19 µM | –
CC(C)(C)OC(=O)N1CCN(c2ncc(C(=O)Nc3ccccc3)c(N)n2)CC1 | 35 µM | –
COc1ccc2nc(C)cc(Nc3ccccc3OC)c2c1 | 13.5 µM | –
Nc1nc(N2CCSCC2)ncc1C(=O)Nc1ccccc1 | 5.6 µM | –
CC1(N)CCN(c2ncc(C(=O)Nc3ccc4c(c3)Cc3ccccc3-4)c(N)n2)CC1 | 100 µM | –
CC1(N)CCN(c2ncc(C(=O)Nc3ccc(Cl)c(Cl)c3)c(N)n2)CC1 | 0.25 µM | –
CC(=O)N1CCN(c2ncc(C(=O)Nc3ccccc3)c(N)n2)CC1 | 6.7 µM | –
CCCCN(C)c1ncc(C(=O)Nc2ccccc2)c(N)n1 | 25 µM | –
CC1(N)CCN(c2ncc(C(=O)Nc3ccc(F)cc3)c(N)n2)CC1 | 0.62 µM | –
CC1(N)CCN(c2ncc(C(=O)Nc3ccccc3)c(N)n2)CC1 | 1.4 µM | –
Nc1nc(N2CCC3(CC2)OCCO3)ncc1C(=O)Nc1ccccc1 | 12.8 µM | –
CC(C)N1CCN(c2ncc(C(=O)Nc3ccccc3)c(N)n2)CC1 | 9.3 µM | –
CN(Cc1ccccc1)c1ncc(C(=O)Nc2ccccc2)c(N)n1 | > 100 µM | –
COc1cccc(OC)c1NC(=O)c1cnc(N2CCC(C)(N)CC2)nc1N | 12.5 µM | –
Nc1nc(N2CCc3ccccc3C2)ncc1C(=O)Nc1ccccc1 | 100 µM | –
CC1(N)CCN(c2ncc(C(=O)Nc3cccc(-c4ccccc4)c3)c(N)n2)CC1 | > 100 µM | –
Nc1nc(N2CCN(c3ccccc3)CC2)ncc1C(=O)Nc1ccccc1 | > 100 µM | –
CC1(N)CCN(c2ncc(C(=O)Nc3ccc([N+](=O)[O-])cc3)c(N)n2)CC1 | 2 µM | –
Nc1nc(N2CCN(C(=O)c3ccco3)CC2)ncc1C(=O)Nc1ccccc1 | 100 µM | –
CC1(N)CCN(c2ncc(C(=O)Nc3cccnc3)c(N)n2)CC1 | 0.089 µM | IC50 [2]: 590 nM; IC50 [3]: 630 nM; half-life [4]: 319 min; Tmax [5]: 4.98 min; Cmax [6]: 854 ng/mL; AUC(0-inf) [7]: 1880 ng·h/mL; Vd [8]: 14 L/kg; clearance [9]: 44.8 mL/min/kg; half-life [10]: 286 min; Tmax [11]: 2.17 h; Cmax [12]: 101 ng/mL; AUC(0-inf) [13]: 1040 ng·h/mL; bioavailability [14]: 55.1%; inhibition [15]: 50%; inhibition [16]: 54%; inhibition [17]: 64%; inhibition [18]: 69%; inhibition [19]: > 35%; inhibition [20]: > 35%
COc1ccc(NC(=O)c2cnc(N3CCC(C)(N)CC3)nc2N)cc1OC | 2.3 µM | –
CC1(N)CCN(c2ncc(C(=O)Nc3cc(Cl)cc(Cl)c3)c(N)n2)CC1 | 3.4 µM | –
Nc1nc(N2CCN(C3CCCCC3)CC2)ncc1C(=O)Nc1ccccc1 | 100 µM | –
COc1ccc(NC(=O)c2cnc(N3CCC(C)(N)CC3)nc2N)cc1 | 1.9 µM | –

Second part, led by results:

IC50 [1] | Structure (SMILES) | also measured
8.1 µM | CC1(N)CCN(c2ncc(C(=O)NCc3ccccn3)c(N)n2)CC1 | –
> 100 µM | COc1ccc(N2CCN(c3ncc(C(=O)Nc4ccccc4)c(N)n3)CC2)cc1 | –
9.5 µM | Nc1nc(N2CCOCC2)ncc1C(=O)Nc1ccccc1 | –
5.6 µM | CC(C)NC(=O)CN1CCN(c2ncc(C(=O)Nc3ccccc3)c(N)n2)CC1 | –
8.5 µM | CCOC(=O)N1CCN(c2ncc(C(=O)Nc3ccccc3)c(N)n2)CC1 | –
8 µM | CC1(N)CCN(c2ncc(C(=O)Nc3ccc4ccccc4c3)c(N)n2)CC1 | –
50 µM | Nc1nc(N2CCCC2)ncc1C(=O)Nc1ccccc1 | –
2.1 µM | CCOC(=O)C1CCN(c2ncc(C(=O)Nc3ccccc3)c(N)n2)CC1 | –
11.5 µM | CCCN1CCN(c2ncc(C(=O)Nc3ccccc3)c(N)n2)CC1 | –
100 µM | CC1(N)CCN(c2ncc(C(=O)Nc3cccc4ccccc34)c(N)n2)CC1 | –
> 100 µM | Nc1nc(N2CCN(c3ccccn3)CC2)ncc1C(=O)Nc1ccccc1 | –
0.8 µM | CC1(N)CCN(c2ncc(C(=O)Nc3ccccn3)c(N)n2)CC1 | –
